Results on 6 molecules are retold here after patent US7524646B2 (priority 2001, dated 2009).

The test system of assay [1] is strain PS2449 (mutated gene ileS ala11, plasmid pTLH33). In kind it is cell-based, E. coli. The following applies: 0.1 ml of 25 mM amino acid in central well, 37 degrees, 24 hours. On the procedure:
(§1) Strains PS2306 and PS2449 are tested for their sensitivity to artificial amino acids which present a steric resemblance to isoleucine. The cells are cultivated in MS mineral medium, succinate (0.2%), arabinose (0.2%) for 24 h at 37 degrees centigrade and diluted at 1/250in MS mineral medium. 0.5 ml of this cell suspension are spread on a Petri dish containing 25 ml of MS medium supplemented with succinate (0.2%) and arabinose (0.2%). A well is then prepared in the middle of the dish and filled with 0.1 ml of an amino acid solution: • 1) 25 mM S-methyl cysteine • 2) 25 mM homocysteine • 3) 25 mM o-methyl-L-serine • 4) 25 mM Norleucine • 5) 25 mM Norvaline
(§2) The Petri dishes are then incubated at 37 degrees centigrade for 24 hours and the appearance of a zone of inhibition around the well is recorded. The diameters of the zones of attenuated growth are measured as follows: […]

For assay [2], the system named is strain PS2306 (wild type ileS gene, plasmid pVDC433). In kind it is cell-based, E. coli. The note with it: 0.1 ml of 25 mM amino acid in central well, 37 degrees, 24 hours. The protocol: as §1, §2
For a further assay, the system named is tRNA^Val. Kind of assay: Misacylation of tRNAVal with Thr. The format is biochemical, E. coli. The following applies: pH 7.5, 37° C. The protocol: FIG. 2B: A graph showing misaminoacylation of tRNA^Val with Thr by the T222P mutant enzyme at pH 7.5 and 37° C. The wild-type (WT) and mutant alleles were cloned under the control of a PBAD promoter (30). The enzymes were partially purified from a laboratory strain lacking the chromosomal copy of the valS gene (ΔvalS::kan+). The purification and aminoacylation procedures were adapted from Hendrickson et al. (31). (Main panel) Misaminoacylation of tRNA^Val with Thr by the two enzymes. (Inset) Aminoacylation of tRNA^Val with Val by the two enzymes.
Aminoaclyation Assay, Misacylation, and Deacylation: Aminoacylation assays were performed at 37 C. in a 100 uL volume containing buffer (20 mM HEPES, 0.1 mM EDTA disodium salt, 0.15M NH4Cl, 10 ug/mL BSA pH 7.5), […] MgCl2, 0.7 μM [^3H]Val, 20 μM cold Val, 2 μM tRNAval (Sigma) and 20 nM ValRS enzyme (adapted from Hendrickson et al. 2000). Aliquots (10 μL) of the reaction mixture were precipitated with tricholoracetic acid, and the level of aminoacylation of the tRNA was determined by scintillation counting.
Misacylation of Thr onto tRNAval was performed in the same conditions except 5.86 μM [^3H]Thr was substituted forVal in the reaction. To test deacylation rates for these enzymes it was necessary to generate [^3H]Thr-tRNAval. […] Enzyme was incubated with 2.5 μM tRNAval and 45 uM [^3H]Thr, incubated at 37 C. for 45 minutes, extracted twice in phenol:chloroform, and ethanol precipitated. Pellet was dissolved in 100 μL sterile H2O and scintillation counting was used to determine the success of the reaction. Deacylation reactions, done in triplicate for each enzyme, were performed in 155 mM Tris-HCl (pH 7.5), 100 μg/ml BSA, 10 mM MgCl2. At room temperature 2 nM enzyme was combined with [^3H]Thr-tRNAval, at 3, 6, 9, 16, and 30 minutes aliquots (9 μL) of the reaction mixture were precipitated with tricholoracetic acid, and the amount of misaminoacylated [^3H]Thr-tRNAval remaining in the sample was determined by scintillation counting. A no enzyme control reaction was included to provide reference point.

`COC[C@H](N)C(=O)O` [O-methyl-L-serine]: the figures for the “diameters of the zones of attenuated growth” value in assay [1] and in assay [2] were 5.6 cm and 2.2 cm, respectively.
For `CCC[C@H](N)C(=O)O` [Norvaline] the same measures were 8.0 cm and 3.7 cm.
Take `CCCC[C@H](N)C(=O)O` [Norleucin, Norleucine]: the “diameters of the zones of attenuated growth” value in assay [1] is listed as 3.4 cm; in assay [2] it was 2.9 cm.
For `N[C@@H](CCS)C(=O)O` [Homocysteine] the same measures were 2.9 cm and 2.1 cm.
For `CSC[C@H](N)C(=O)O` [S-methyl-L-cysteine] the same measures were 3.0 cm and 1.3 cm.

B1: wild-type enzyme: wild-type valyl-tRNA synthetase (ValRS) of E. coli (protein, UniProt P07118 1-951, looked up)
Valine--tRNA ligase: MEKTYNPQDIEQPLYEHWEKQGYFKPNGDESQESFCIMIPPPNVTGSLHMGHAFQQTIMDTMIRYQRMQGKNTLWQVGTDHAGIATQMVVERKIAAEEGKTRHDYGREAFIDKIWEWKAESGGTITRQMRRLGNSVDWERERFTMDEGLSNAVKEVFVRLYKEDLIYRGKRLVNWDPKLRTAISDLEVENRESKGSMWHIRYPLADGAKTADGKDYLVVATTRPETLLGDTGVAVNPEDPRYKDLIGKYVILPLVNRRIPIVGDEHADMEKGTGCVKITPAHDFNDYEVGKRHALPMINILTFDGDIRESAQVFDTKGNESDVYSSEIPAEFQKLERFAARKAVVAAVDALGLLEEIKPHDLTVPYGDRGGVVIEPMLTDQWYVRADVLAKPAVEAVENGDIQFVPKQYENMYFSWMRDIQDWCISRQLWWGHRIPAWYDEAGNVYVGRNEDEVRKENNLGADVVLRQDEDVLDTWFSSALWTFSTLGWPENTDALRQFHPTSVMVSGFDIIFFWIARMIMMTMHFIKDENGKPQVPFHTVYMTGLIRDDEGQKMSKSKGNVIDPLDMVDGISLPELLEKRTGNMMQPQLADKIRKRTEKQFPNGIEPHGTDALRFTLAALASTGRDINWDMKRLEGYRNFCNKLWNASRFVLMNTEGQDCGFNGGEMTLSLADRWILAEFNQTIKAYREALDSFRFDIAAGILYEFTWNQFCDWYLELTKPVMNGGTEAELRGTRHTLVTVLEGLLRLAHPIIPFITETIWQRVKVLCGITADTIMLQPFPQYDASQVDEAALADTEWLKQAIVAVRNIRAEMNIAPGKPLELLLRGCSADAERRVNENRGFLQTLARLESITVLPADDKGPVSVTKIIDGAELLIPMAGLINKEDELARLAKEVAKIEGEISRIENKLANEGFVARAPEAVIAKEREKLEGYAEAKAKLIEQQAVIAAL
B1: in the assay with tRNA^Val, the “misacylation of tRNA^Val with Thr” value was “no detectable mischarged tRNA^Val”.
